Laboratory results published in PubChem BioAssay AID192 (DTP/NCI, 2004).
Values joined by “and” are separate entries in the source; they are usually repeats but may differ in a detail not shown here. Equal values may be shown once. Toxic doses and inconclusive results are not listed.

System: BDF1 mice, B16 melanoma ip, median survival T/C
Test: NCI In Vivo Anticancer Drug Screen. Data for tumor model B16 Melanoma (intraperitoneal) in B6D2F1 (BDF1) mice
Details: endpoint: median survival time, higher = longer survival
Method: The antitumor activity of compounds was measured in mice bearing transplantable tumors. Survival or tumor size were measured and the results are expressed as the measurement made in the treated group (T) divided by the measurement made in the vehicle treated control group (C). The tumor model used in this assay is B16 Melanoma (intraperitoneal) in B6D2F1 (BDF1) mice

[1] = dose: 6.25 mg/kg/injection, schedule: Q01DX009 (ip), vehicle: saline
[2] = dose: 12.5 mg/kg/injection, schedule: Q01DX009 (ip), vehicle: saline
[3] = dose: 25.0 mg/kg/injection, schedule: Q01DX009 (ip), vehicle: saline
[4] = dose: 50.0 mg/kg/injection, schedule: Q01DX009 (ip), vehicle: saline
[5] = dose: 200.0 mg/kg/injection, schedule: Q01DX009 (ip), vehicle: saline
[6] = dose: 6.25 mg/kg/injection, schedule: Q01DX009 (ip), vehicle: Klucel (hydroxypropylcellulose) (HPC)
[7] = dose: 12.5 mg/kg/injection, schedule: Q01DX009 (ip), vehicle: Klucel (hydroxypropylcellulose) (HPC)
[8] = dose: 25.0 mg/kg/injection, schedule: Q01DX009 (ip), vehicle: Klucel (hydroxypropylcellulose) (HPC)
[9] = dose: 100.0 mg/kg/injection, schedule: Q01DX009 (ip), vehicle: saline
[10] = dose: 100.0 mg/kg/injection, schedule: Q01DX009 (ip), vehicle: Klucel (hydroxypropylcellulose) (HPC)
[11] = dose: 200.0 mg/kg/injection, schedule: Q01DX009 (ip), vehicle: Klucel (hydroxypropylcellulose) (HPC)
[12] = dose: 50.0 mg/kg/injection, schedule: Q01DX009 (ip), vehicle: Klucel (hydroxypropylcellulose) (HPC)
[13] = dose: 400.0 mg/kg/injection, schedule: Q01DX009 (ip), vehicle: Klucel (hydroxypropylcellulose) (HPC)

NC1=NCN(C2OC(CO)C(O)C2O)C(=O)N1 (centres undefined)
T/C (dose: 1.56 mg/kg/injection, schedule: Q01DX009 (ip), vehicle: saline): 92 % of control and 110 % of control | T/C (dose: 3.12 mg/kg/injection, schedule: Q01DX009 (ip), vehicle: saline): 96 % of control | T/C (dose: 3.12 mg/kg/injection, schedule: Q01DX009 (ip), vehicle: suspension in saline): 93 % of control | T/C [1]: 94 % of control and 110 % of control | T/C (dose: 6.25 mg/kg/injection, schedule: Q01DX009 (ip), vehicle: suspension in saline): 110 % of control | T/C [2]: 110 % of control | T/C (dose: 12.5 mg/kg/injection, schedule: Q01DX009 (ip), vehicle: suspension in saline): 110 % of control | T/C [3]: 94 % of control and 111 % of control | T/C (dose: 25.0 mg/kg/injection, schedule: Q01DX009 (ip), vehicle: suspension in saline): 89 % of control | T/C [4]: 111 % of control | T/C [5]: 111 % of control and 119 % of control

CC(C)N=C(N)/N=C(\N)Nc1ccc2ccc3ccccc3c2c1
T/C [6]: 112 % of control | T/C [7]: 103 % of control | T/C [8]: 87 % of control

O=CN(O)CC(=O)O
T/C (dose: 100.0 mg/kg/injection, schedule: Q04DX003 (ip), vehicle: saline): 97 % of control | T/C (dose: 200.0 mg/kg/injection, schedule: Q04DX003 (ip), vehicle: saline): 100 % of control | T/C (dose: 400.0 mg/kg/injection, schedule: Q04DX003 (ip), vehicle: saline): 100 % of control

CC(C)=CCc1c2c(c(O)c3c(=O)c(-c4ccc(O)c(O)c4)coc13)C=CC(C)(C)O2
T/C (dose: 25.0 mg/kg/injection, schedule: Q01DX009 (ip), vehicle: saline with Tween-80): 100 % of control | T/C (dose: 50.0 mg/kg/injection, schedule: Q01DX009 (ip), vehicle: saline with Tween-80): 94 % of control | T/C (dose: 100.0 mg/kg/injection, schedule: Q01DX009 (ip), vehicle: saline with Tween-80): 94 % of control | T/C (dose: 200.0 mg/kg/injection, schedule: Q01DX009 (ip), vehicle: saline with Tween-80): 100 % of control

CC(C)CN(C)/N=N/c1nc[nH]c1C(N)=O
T/C (dose: 18.75 mg/kg/injection, schedule: Q01DX009 (ip), vehicle: carboxymethylcellulose (CMC)): 111 % of control | T/C (dose: 75.0 mg/kg/injection, schedule: Q01DX009 (ip), vehicle: carboxymethylcellulose (CMC)): 123 % of control

NC(N)=NCCc1ccccc1
T/C (dose: 5.0 mg/kg/injection, schedule: Q01DX009 (ip), vehicle: saline): 119 % of control | T/C (dose: 10.0 mg/kg/injection, schedule: Q01DX009 (ip), vehicle: saline): 111 % of control | T/C (dose: 20.0 mg/kg/injection, schedule: Q01DX009 (ip), vehicle: saline): 114 % of control

CC1CN(CCC#N)CC(C)O1 (centres undefined)
T/C [9]: 95 % of control | T/C [5]: 95 % of control

CCCC1CCC(=C2C(=O)CCC2=O)O1 (centres undefined)
T/C (dose: 3.13 mg/kg/injection, schedule: Q01DX009 (ip), vehicle: saline): 102 % of control | T/C [1]: 100 % of control | T/C [2]: 91 % of control | T/C [3]: 89 % of control

Cc1cccc(NC(=O)CCl)c1
T/C (dose: 50.0 mg/kg/injection, schedule: Q01DX009 (ip), vehicle: carboxymethylcellulose (CMC)): 109 % of control | T/C (dose: 100.0 mg/kg/injection, schedule: Q01DX009 (ip), vehicle: carboxymethylcellulose (CMC)): 101 % of control

Cc1noc(/N=C/c2ccccc2)c1C
T/C (dose: 100.0 mg/kg/injection, schedule: Q04DX003 (ip), vehicle: Klucel (hydroxypropylcellulose) (HPC)): 108 % of control | T/C (dose: 200.0 mg/kg/injection, schedule: Q04DX003 (ip), vehicle: Klucel (hydroxypropylcellulose) (HPC)): 105 % of control | T/C (dose: 400.0 mg/kg/injection, schedule: Q04DX003 (ip), vehicle: Klucel (hydroxypropylcellulose) (HPC)): 108 % of control

C#CC[N+]12CN3CN(CN(C3)C1)C2
T/C [4]: 104 % of control | T/C [9]: 100 % of control | T/C [5]: 107 % of control

O=C(O)C(S)c1ccc2ccccc2c1 (centres undefined)
T/C [10]: 101 % of control | T/C [11]: 96 % of control

CC(Cc1ccc(O)c(O)c1)C(C)Cc1ccc(O)c(O)c1 (centres undefined)
T/C (dose: 750.0 mg/kg/injection, schedule: Q01DX009 (oral), vehicle: saline): 100 % of control | T/C (dose: 1500.0 mg/kg/injection, schedule: Q01DX009 (oral), vehicle: saline): 97 % of control

CN(Cc1cnc2nc(N)nc(N)c2n1)c1c(Cl)cc(C(=O)NC(CCC(=O)O)C(=O)O)cc1Cl (centres undefined)
T/C (dose: 3.12 mg/kg/injection, schedule: Q01DX009 (ip), vehicle: Klucel (hydroxypropylcellulose) (HPC)): 116 % of control | T/C [6]: 111 % of control | T/C [7]: 116 % of control | T/C (dose: 17.5 mg/kg/injection, schedule: Q01DX011 (ip), vehicle: saline): 99 % of control | T/C [8]: 109 % of control | T/C (dose: 35.0 mg/kg/injection, schedule: Q01DX011 (ip), vehicle: saline): 107 % of control | T/C [12]: 111 % of control

CCCCc1c(OC)cc(O)c2c1C(=O)c1[nH]c(C(=O)O)c(O)c(=O)c1C2=O
T/C (dose: 7.5 mg/kg/injection, schedule: Q01DX009 (ip), vehicle: Klucel (hydroxypropylcellulose) (HPC)): 96 % of control | T/C (dose: 15.0 mg/kg/injection, schedule: Q01DX009 (ip), vehicle: Klucel (hydroxypropylcellulose) (HPC)): 96 % of control

N[C@H](C(=O)O)[C@H]1ON=C(Cl)[C@@H]1O
T/C (dose: 4.0 mg/kg/injection, schedule: Q01DX009 (ip), vehicle: saline): 90 % of control | T/C (dose: 8.0 mg/kg/injection, schedule: Q01DX009 (ip), vehicle: saline): 94 % of control | T/C (dose: 16.0 mg/kg/injection, schedule: Q01DX009 (ip), vehicle: saline): 103 % of control | T/C (dose: 32.0 mg/kg/injection, schedule: Q01DX009 (ip), vehicle: saline): 106 % of control | T/C (dose: 64.0 mg/kg/injection, schedule: Q01DX009 (ip), vehicle: saline): 102 % of control and 115 % of control | T/C (dose: 128.0 mg/kg/injection, schedule: Q01DX009 (ip), vehicle: saline): 101 % of control | T/C (dose: 256.0 mg/kg/injection, schedule: Q01DX009 (ip), vehicle: saline): 107 % of control | T/C (dose: 512.0 mg/kg/injection, schedule: Q01DX009 (ip), vehicle: saline): 109 % of control

CCOC(=O)N(C)C
T/C [9]: 93 % of control | T/C [5]: 98 % of control | T/C (dose: 400.0 mg/kg/injection, schedule: Q01DX009 (ip), vehicle: saline): 94 % of control

CS(=O)(=O)Nc1ccc(Nc2c3ccccc3nc3cc(Cl)ccc23)cc1
T/C (dose: 3.0 mg/kg/injection, schedule: Q01DX009 (ip), vehicle: saline with Tween-80): 152 % of control | T/C (dose: 37.5 mg/kg/injection, schedule: Q01DX001 (ip), vehicle: saline sonified): 169 % of control | T/C (dose: 75.0 mg/kg/injection, schedule: Q01DX001 (ip), vehicle: saline sonified): 152 % of control

O=C(O)c1ccccc1C(=O)Nc1cc(Cl)ccc1Cl
T/C [12]: 100 % of control | T/C [10]: 94 % of control

OCCCCc1nccc2c1[nH]c1ccccc12
T/C [7]: 97 % of control | T/C [8]: 95 % of control | T/C [12]: 95 % of control | T/C [10]: 96 % of control

Oc1nc(/N=C2/N=c3ccc(Cl)cc3=N2)[nH]c1O
T/C [7]: 86 % of control | T/C [8]: 93 % of control | T/C [12]: 86 % of control

C=CCNC(=S)NCC=C
T/C [10]: 97 % of control | T/C [11]: 92 % of control | T/C [13]: 102 % of control

CCC(=O)c1ccc2c(c1)N(CCCN(C)C)c1ccccc1S2
T/C (dose: 3.12 mg/kg/injection, schedule: Q01DX009 (ip), vehicle: saline with Tween-80): 96 % of control | T/C (dose: 6.25 mg/kg/injection, schedule: Q01DX009 (ip), vehicle: saline with Tween-80): 86 % of control | T/C (dose: 12.5 mg/kg/injection, schedule: Q01DX009 (ip), vehicle: saline with Tween-80): 96 % of control

O=[N+]([O-])c1cccc(N=Cc2ccccc2)c1
T/C (dose: 66.0 mg/kg/injection, schedule: Q01DX009 (ip), vehicle: Klucel (hydroxypropylcellulose) (HPC)): 102 % of control | T/C (dose: 150.0 mg/kg/injection, schedule: Q01DX009 (ip), vehicle: Klucel (hydroxypropylcellulose) (HPC)): 122 % of control

COc1cccc(C2CCN(C)C2)c1 (centres undefined)
T/C [6]: 89 % of control | T/C [7]: 100 % of control | T/C [8]: 100 % of control

CCc1ccc(NC(=O)Nc2ccccc2OC)cc1
T/C (dose: 100.0 mg/kg/injection, schedule: Q01DX009 (ip), vehicle: gum acacia): 105 % of control | T/C (dose: 200.0 mg/kg/injection, schedule: Q01DX009 (ip), vehicle: gum acacia): 98 % of control | T/C (dose: 400.0 mg/kg/injection, schedule: Q01DX009 (ip), vehicle: gum acacia): 101 % of control

C=CCOP(=O)(OCC=C)OCC=C
T/C [8]: 96 % of control | T/C [12]: 100 % of control

O=C(NC1CCCCC1)Oc1ccccc1-c1ccccc1
T/C [10]: 88 % of control | T/C [13]: 100 % of control
